{
  "source": "ChEMBL document CHEMBL1287745",
  "about": "“AdoHcy hydrolase of Trichomonas vaginalis: studies of the effects of 5'-modified adenosine analogues and related 6-N-cyclopropyl derivatives” (Bioorg Med Chem Lett, 2010)",
  "key": {"[1]": {"tested_on": "Trichomonas vaginalis", "assay": "[…] activity against Trichomonas vaginalis T1", "assay_type": "functional, organism-based"}, "[2]": {"tested_on": "Trichomonas vaginalis", "assay": "Antiparasitic activity against Trichomonas vaginalis T1 at […] after 24 hrs by hemocytometric analysis", "assay_type": "functional"}, "[3]": {"tested_on": "Trypanosoma", "assay": "Antimicrobial activity against Trypanosoma", "assay_type": "functional, organism-based"}, "[4]": {"conditions": "Trichomonas vaginalis, T1, read-out: IC50; call rule not given here"}},
  "note": "Values joined by “and” are separate entries in the source; they are usually repeats but may differ in a detail not shown here. Identical values can stand only once.",
  "data": [
    {"compound": "Nc1ncnc2c1ncn2[C@@H]1O[C@H](/C=C/I)[C@@H](O)[C@H]1O", "values": [
      {"measurement": "IC50", "setting": "[1]; [4]", "result": "60 µM and 19 µg/mL"},
      {"measurement": "growth inhibition (GI)", "setting": "[2]", "result": 85, "unit": "%"}
    ]},
    {"compound": "Nc1ncnc2c1ncn2[C@@H]1O[C@H](/C=C/CCCC(=O)O)[C@@H](O)[C@H]1O", "values": [
      {"measurement": "growth inhibition (GI)", "setting": "[2]", "result": 22, "unit": "%"}
    ]},
    {"compound": "Nc1ncnc2c1ncn2[C@@H]1O[C@H](/C=C/C#CI)[C@@H](O)[C@H]1O", "values": [
      {"measurement": "growth inhibition (GI)", "setting": "[2]", "result": 34, "unit": "%"}
    ]},
    {"compound": "Cc1ncc([N+](=O)[O-])n1CCO", "note": "[METRONIDAZOLE]", "values": [
      {"measurement": "IC50", "setting": "[1]; [4]", "result": 0.12, "unit": "µg/mL"}
    ]},
    {"compound": "Nc1ncnc2c1ncn2[C@@H]1C[C@H](CO)[C@@H](O)[C@H]1O", "note": "[ARISTEROMYCIN]", "values": [
      {"measurement": "IC50", "setting": "[1]; [4]", "result": "10 µM and 3 µg/mL"},
      {"measurement": "growth inhibition (GI)", "setting": "[2]", "result": 95, "unit": "%"}
    ]},
    {"compound": "Nc1ncnc2c1ncn2CCC(O)CO", "note": "(stereo not given)", "values": [
      {"measurement": "growth inhibition (GI)", "setting": "[2]", "result": 11, "unit": "%"}
    ]},
    {"compound": "Nc1ncnc2c1ncn2[C@@H]1O[C@H](C=NO)[C@@H](O)[C@H]1O", "values": [
      {"measurement": "IC50", "setting": "[1]; [4]", "result": "40 µM and 11 µg/mL"},
      {"measurement": "growth inhibition (GI)", "setting": "[2]", "result": 93, "unit": "%"}
    ]},
    {"compound": "COC(=O)[C@H]1O[C@@H](n2cnc3c(N)ncnc32)[C@H](O)[C@@H]1O", "values": [
      {"measurement": "growth inhibition (GI)", "setting": "[2]", "result": 4, "unit": "%"}
    ]},
    {"compound": "O[C@@H]1[C@H](O)[C@@H](C=CF)O[C@H]1n1cnc2c(NC3CC3)ncnc21", "values": [
      {"measurement": "IC50", "setting": "[3]; Trypanosoma, read-out: IC50", "result": 19, "unit": "µg/mL"},
      {"measurement": "growth inhibition (GI)", "setting": "[2]", "result": 10, "unit": "%"}
    ]},
    {"compound": "Nc1ncnc2c1ncn2[C@@H]1O[C@H](/C=C\\I)[C@@H](O)[C@H]1O", "values": [
      {"measurement": "IC50", "setting": "[1]; [4]", "result": "76 µM and 24 µg/mL"},
      {"measurement": "growth inhibition (GI)", "setting": "[2]", "result": 81, "unit": "%"}
    ]},
    {"compound": "Nc1ncnc2c1ncn2[C@@H]1C[C@H](C(=O)O)[C@@H](O)[C@H]1O", "values": [
      {"measurement": "growth inhibition (GI)", "setting": "[2]", "result": 36, "unit": "%"}
    ]},
    {"compound": "O[C@@H]1[C@H](O)[C@@H](C=CI)O[C@H]1n1cnc2c(NC3CC3)ncnc21", "values": [
      {"measurement": "IC50", "setting": "[3]; Trypanosoma, read-out: IC50", "result": 12, "unit": "µg/mL"},
      {"measurement": "IC50", "setting": "[1]", "result": "Not Active"},
      {"measurement": "growth inhibition (GI)", "setting": "[2]", "result": 24, "unit": "%"}
    ]},
    {"compound": "Nc1ncnc2c1ncn2[C@@H]1O[C@H](C(=O)O)[C@@H](O)[C@H]1O", "note": "[5'-CARBOXY ADENOSINE]", "values": [
      {"measurement": "growth inhibition (GI)", "setting": "[2]", "result": 17, "unit": "%"}
    ]},
    {"compound": "ON=C[C@H]1O[C@@H](n2cnc3c(NC4CC4)ncnc32)[C@H](O)[C@@H]1O", "values": [
      {"measurement": "IC50", "setting": "[3]", "result": "Not Active"},
      {"measurement": "growth inhibition (GI)", "setting": "[2]", "result": 41, "unit": "%"}
    ]},
    {"compound": "O[C@@H]1[C@H](O)[C@@H](C=C(Br)Br)O[C@H]1n1cnc2c(NC3CC3)ncnc21", "values": [
      {"measurement": "IC50", "setting": "[3]", "result": "Not Active"},
      {"measurement": "growth inhibition (GI)", "setting": "[2]", "result": 12, "unit": "%"}
    ]},
    {"compound": "COC(=O)C(O)CCn1cnc2c(N)ncnc21", "note": "(stereo not given)", "values": [
      {"measurement": "growth inhibition (GI)", "setting": "[2]", "result": 16, "unit": "%"}
    ]}
  ]
}
